Results as given in patent publication EP4789662A1, “POWDER FOR INHALATION” (Nagase Viita Co., Ltd., priority 2023, dated 2025).

Tests used:
[1] = test system: chronic obstructive pulmonary disease (COPD); assay: Animal test 1: OVA-induced COPD in rats, lung tissue and BALF infiltrating cells; format: in vivo; conditions: OVA-challenge; p.o. 60 mg/kg; BALF 24 h after OVA; Mean±S.E. (n=4)
Procedure: In order to evaluate the pharmacological effect of the mT/PL-RP (Example 1) via intratracheal administration, chronic obstructive pulmonary disease (COPD) was induced in rats, and the effect was compared with the effect via oral administration. Ovalbumin (OVA, Sigma-Aldrich) was intraperitoneally administered three times at seven-day intervals. Next day, the mT/PL-RP (Example 1) (5 mg-PL/kg) was intratracheally administered, or the PL (Comparative Example 2) (60 mg/kg) was orally administered. One hour after the administration, inflammation was caused by intratracheally administering micronized OVA powder to induce COPD. Twenty-four hours after the inflammation caused by OVA administration, the lungs were excised and bronchoalveolar lavage fluid (BALF) was collected. The lung tissue was stained with peroxidase by a standard method and subsequently observed. […] FIG. 8 and Table 6 show the result.

[2] = Animal test 2: amount of PL transferred into blood (pharmacokinetics); format: in vivo; conditions: rat, po, rats, p.o. 60 mg/kg, Mean±S.E. (n=4-5)
Procedure: The amount of PL transferred into blood was evaluated in oral administration and intratracheal administration. The blood PL concentrations up to 12 hours after administration were measured over time in a group of rats having undergone intratracheal administration of the mT/PL-RP (Example 1) (5 mg-PL/kg) and in a group of rats having undergone oral administration of the PL (Comparative Example 2) (60 mg/kg). FIG. 9 and Table 7 show the results.

O=C(Nc1cccc2c(=O)cc(-c3nnn[nH]3)oc12)c1ccc(OCCCCc2ccccc2)cc1 [Crystalline PL, pranlukast]
Inflammatory cells in BALF, Eosinophils [1]: 1.5 ± 0.6 × 10^4 cells/mL | Inflammatory cells in BALF, Macrophages [1]: 3.1 ± 1.3 × 10^4 cells/mL | Inflammatory cells in BALF, Neutrophils [1]: 11.5 ± 2.7 × 10^4 cells/mL | Cmax [2]: 0.25 ± 0.16 µg/mL | Tmax [2]: 1.6 ± 0.6 h
